Experiment [1] deals with SW780 (Bladder Carcinoma). Description: combination Emax (second highest fraction inhibited in the dose matrix, 72 h); higher = more inhibition; extreme values may be limits of the assay. The gist of the method: (§1)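 Bliss excess equals the observed combination effect minus the expected value EA + EB − EA·EB, where EA and EB are the effects of each agent alone. Combination Emax is the second-highest inhibition within the matrix. Inhibition was scaled from CellTiter-Glo 2.0 luminescence, with 0 set by vehicle wells and 1 by blank wells, after 72 hours of two-drug dosing of cells plated in 1536-well plates.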

For experiment [2], the system named is RH-1 (Ewing's Sarcoma). The description is as above. The method in brief:
as §1

In experiment [3] the test system is SUIT-2 (Pancreatic Carcinoma). The experiment is described as above. The gist of the method:
as §1

For experiment [4], the system named is KM-H2 (Hodgkin's Lymphoma). The experiment is described as above. The gist of the method:
as §1

Experiment [5] relates to SW756 (Cervical Carcinoma). The experiment is described as above. The method in brief: as §1
Experiment [6] relates to TGBC24TKB (Biliary Tract Carcinoma). The experiment is described as above. The method in brief:
as §1

The test system of experiment [7] is TE-5 (Esophageal Squamous Cell Carcinoma). Description: Bliss excess, mean over the matrix (fraction); higher = more synergy. The method in brief: as §1
Experiment [8] has as its system NALM-6 (B-Lymphoblastic Leukemia). The experiment is described as above. The gist of the method:
as §1

The test system of experiment [9] is KARPAS-620 (Plasma Cell Myeloma). Described as above. The gist of the method:
as §1

In experiment [10] the test system is SK-N-FI (Neuroblastoma). The description is as above. The method in brief: as §1
The test system of experiment [11] is SW1990 (Pancreatic Carcinoma). The experiment is described as above. The method in brief: as §1
The subject of experiment [12] is SW1783 (Low Grade Glioma). Described as above. The method in brief: as §1
Experiment [13] deals with NCI-H2595 (Mesothelioma). The description is as above. The gist of the method: as §1
Experiment [14] relates to HT-29 (Colorectal Carcinoma). The description is as above. The gist of the method:
as §1

Experiment [15] relates to U-266 (Plasma Cell Myeloma). The description is as above. The gist of the method: as §1
Experiment [16] has as its system DSH1 (Bladder Carcinoma). The description is as above. The method in brief:
as §1

Experiment [17] deals with IHH-4 (Thyroid Gland Carcinoma). Described as above. The method in brief: as §1
Experiment [18] has as its system MFH-ino (Other Solid Carcinomas). Described as above. The gist of the method: as §1
For experiment [19], the system named is ES7 (Ewing's Sarcoma). The description is as above. The method in brief:
as §1

The subject of experiment [20] is LS-513 (Colorectal Carcinoma). The experiment is described as above. The method in brief: as §1

Consider `CS(=O)(=O)CCNCc1ccc(-c2ccc3ncnc(Nc4ccc(OCc5cccc(F)c5)c(Cl)c4)c3c2)o1` [Lapatinib] + NC1(c2ccc(-c3nc4ccn5c(=O)[nH]nc5c4cc3-c3ccccc3)cc2)CCC1 [MK-2206] (first compound max 10 µM, 7x7, partner max 10 µM), for which the “combination Emax” value in experiment [1] came to 0.737; in [2], 0.936; in experiment [3], 0.361; in [4] it was 0.939; in experiment [5] it was 0.175; in experiment [6], 0.957. For the same compound, the Bliss excess is 0.0735 in experiment [7]; -0.0044 in experiment [8]; 0.032 in experiment [9]; -0.0027 in experiment [10]; -0.003 in experiment [11]; -0.0201 in experiment [12]. The Bliss excess in [13] is -0.0559; in experiment [14], 0.0084; in [15] it was -0.016; in experiment [16] it was 0.0917; in [17], 0.0087; in experiment [18], -0.102. The values for the Bliss excess in [19] and in [20] were 0.036 and -0.0396, respectively.

`Cc1c2c(nn1C)CSCc1cc(n(C)n1)CSc1cc(c3ccccc3c1)OCCCc1c(C(=O)O)n(C)c3c-2c(Cl)ccc13` [AZD5991] + CS(=O)(=O)CCNCc1ccc(-c2ccc3ncnc(Nc4ccc(OCc5cccc(F)c5)c(Cl)c4)c3c2)o1 [Lapatinib] (first compound max 1 µM, 7x7, partner max 10 µM): the Bliss excess is 0.0198 in experiment [7]; -0.101 in [8]; 0.0054 in experiment [9]; -0.0808 in experiment [10]; 0.0149 in experiment [11]; -0.0106 in experiment [12]. Besides, the Bliss excess in experiment [13] was -0.0398; in experiment [14], -0.0216; in experiment [15], -0.0501; in experiment [16], 0.0013; in [17], 0.011; in experiment [18] it was -0.0513. Moreover, the Bliss excess in [19] came to 0.0148; in [20], 0.0305.

For the compound `O=C(c1cc(Cc2n[nH]c(=O)c3ccccc23)ccc1F)N1CCN(C(=O)C2CC2)CC1` [Olaparib] + CN(CC[C@H](CSC1=CC=CC=C1)NC2=C(C=C(C=C2)S(=O)(=O)NC(=O)C3=CC=C(C=C3)N4CCC(CC4)[C@H](C5=CC=CC=C5C6=CC=C(C=C6)Cl)O)S(=O)(=O)C(F)(F)F)CCO [AZD4320] (first compound max 10 µM, 7x7, partner max 1 µM), the Bliss excess in experiment [7] is -0.0436; in experiment [8], 0.0211; in experiment [9] it was 0.0017; in experiment [10], -0.0374; in experiment [11], -0.0818; in experiment [12], -0.0391. Further, the Bliss excess in experiment [13] is -0.045; in experiment [14], -0.0278; in experiment [15], -0.0187; in experiment [16], 0.0308; in experiment [17] it was -0.0368; in experiment [18] it was -0.0594. Also, the Bliss excess in experiment [19] is 0.0156; in [20], -0.0326.

Turning to `CS(=O)(=O)CCNCc1ccc(-c2ccc3ncnc(Nc4ccc(OCc5cccc(F)c5)c(Cl)c4)c3c2)o1` [Lapatinib] + Cn1cnc2c(F)c(Nc3ccc(Br)cc3Cl)c(C(=O)NOCCO)cc21 [Selumetinib] (first compound max 10 µM, 7x7, partner max 10 µM), the Bliss excess in experiment [7] is -0.0241; in experiment [8] it was 0.021; in experiment [9], 0.0746; in experiment [10], 0.0179; in experiment [11] it was 0.0373; in experiment [12], -0.0252. The Bliss excess in experiment [13] is -0.0548; in experiment [14], 0.0362; in [15], 0.0347; in [16], -0.067; in experiment [17], -0.0136; in experiment [18], -0.0468. In addition, the Bliss excess is -0.0355 in experiment [19] and -0.054 in experiment [20].

Consider `C=CCn1c(=O)c2cnc(Nc3ccc(N4CCN(C)CC4)cc3)nc2n1-c1cccc(C(C)(C)O)n1` [AZD1775] + CCc1c2c(nc3ccc(O)cc13)-c1cc3c(c(=O)n1C2)COC(=O)[C@]3(O)CC [SN-38] (first compound max 1 µM, partner max 0.3 µM), for which the Bliss excess in experiment [7] was -0.0583; in experiment [8] it was -0.0563; in experiment [9] it was -0.0145; in experiment [10] it was -0.0038; in [11], -0.0908; in experiment [12] it was -0.0817. The Bliss excess was -0.0096 in experiment [13]; 0.027 in experiment [14]; -0.0555 in [15]; -0.0654 in [16]; -0.0485 in [17]; -0.0756 in experiment [18]. The Bliss excess in [19] was -0.0228; in [20] it was -0.0867.

Turning to `Cc1c2c(nn1C)CSCc1cc(n(C)n1)CSc1cc(c3ccccc3c1)OCCCc1c(C(=O)O)n(C)c3c-2c(Cl)ccc13` [AZD5991] + Nc1ccn([C@@H]2O[C@H](CO)[C@@H](O)C2(F)F)c(=O)n1 [Gemcitabine] (first compound max 1 µM, 7x7, partner max 0.3 µM), the Bliss excess in [7] was 0.0112; in experiment [8] it was -0.0245; in experiment [9], 0.031; in experiment [10], 0.0074; in [11] it was 0.0278; in experiment [12], -0.0199. The Bliss excess in experiment [13] was -0.0053; in experiment [14] it was 0.0168; in experiment [15], 0.0379; in experiment [16], 0.053; in [17] it was 0.0122; in experiment [18], -0.0495. For the same compound, the Bliss excess is 0.0062 in experiment [19] and -0.102 in experiment [20].

In the case of `N#Cc1cnc(Nc2cc(NC[C@H]3CNCCO3)c(C(F)(F)F)cn2)cn1` [SRA737] + C=CCn1c(=O)c2cnc(Nc3ccc(N4CCN(C)CC4)cc3)nc2n1-c1cccc(C(C)(C)O)n1 [AZD1775] (first compound max 10 µM, partner max 1 µM), the Bliss excess in experiment [7] is 0.0481; in [8], 0.11; in [9], 0.133; in experiment [10] it was 0.0703; in [11], -0.0149; in experiment [12] it was 0.0153. For the same compound, the Bliss excess is -0.0688 in experiment [13]; 0.0394 in [14]; 0.0474 in experiment [15]; -0.0441 in experiment [16]; 0.14 in [17]; -0.013 in experiment [18]. In addition, the Bliss excess in experiment [19] came out at 0.102; in experiment [20], 0.0476.

As for `N#Cc1cnc(Nc2cc(NC[C@H]3CNCCO3)c(C(F)(F)F)cn2)cn1` [SRA737] + Nc1ccn([C@@H]2O[C@H](CO)[C@@H](O)C2(F)F)c(=O)n1 [Gemcitabine] (first compound max 10 µM, 7x7, partner max 0.3 µM), the Bliss excess was -0.0151 in experiment [7]; -0.0673 in experiment [8]; 0.151 in experiment [9]; 0.0476 in experiment [10]; -0.0384 in experiment [11]; 0.0091 in experiment [12]. The Bliss excess in [13] was 0.0252; in experiment [14] it was 0.0573; in experiment [15], -0.0101; in experiment [16], 0.0195; in [17], 0.0649; in [18] it was -0.0148. Moreover, the Bliss excess in experiment [19] is 0.0172; in [20], -0.0189.

In the case of `C[C@@H]1COCCN1c1cc(C2([S@](C)(=N)=O)CC2)nc(-c2ccnc3[nH]ccc23)n1` [AZD6738] + Nc1ccn([C@@H]2O[C@H](CO)[C@@H](O)C2(F)F)c(=O)n1 [Gemcitabine] (first compound max 10 µM, 7x7, partner max 0.3 µM), the Bliss excess in experiment [7] was -0.0102; in experiment [8], -0.0252; in experiment [9], 0.135; in experiment [10] it was 0.0769; in [11], -0.0028; in [12], -0.0109. For the same compound, the Bliss excess in [13] was 0.0326; in experiment [14] it was 0.0492; in experiment [15], 0.057; in experiment [16], 0.0108; in [17], 0.0816; in experiment [18], -0.0585. Further, the Bliss excess in [19] was 0.0367; in experiment [20], -0.0336.

In the case of `Cc1c2c(nn1C)CSCc1cc(n(C)n1)CSc1cc(c3ccccc3c1)OCCCc1c(C(=O)O)n(C)c3c-2c(Cl)ccc13` [AZD5991] + CC(=O)O[C@H]1C(=O)[C@@]2(C)[C@H]([C@H](OC(=O)c3ccccc3)[C@]3(O)C[C@H](OC(=O)[C@H](O)[C@@H](NC(=O)c4ccccc4)c4ccccc4)C(C)=C1C3(C)C)[C@]1(OC(C)=O)CO[C@@H]1C[C@@H]2O [Paclitaxel] (first compound max 1 µM, 7x7, partner max 3 µM), the Bliss excess in experiment [7] is -0.0112; in experiment [8] it was -0.0432; in experiment [9] it was -0.0174; in experiment [10], -0.0177; in experiment [11], -0.0231; in [12], -0.0242. Further, the Bliss excess in [13] was -0.0504; in experiment [14], -0.1; in [15], -0.0074; in experiment [16], 0.0523; in experiment [17], -0.0341; in experiment [18], -0.0321. For the same compound, the Bliss excess in [19] is -0.06; in [20], -0.0216.

(Values after the supplement of paper PMC11061612.)
